Results: patent US9120777B2, “Heterocyclic compound” (Takeda Pharmaceutical Company Limited, priority 2013, dated 2015)

Assays:
human SSTR5 = target: T1, human SSTR5 (Homo sapiens, UniProt P35346); assay: Evaluation of human SSTR5 antagonist activity using intracellular cAMP concentration as index; type: cell-based; conditions: 1 uM test compound; CHO (dhfr-) cells stably expressing human SSTR5; 0.1 nM somatostatin 28 and 0.3 uM forskolin; HTRF cAMP; read-out: Inhibition rate against SSTR5 at 1 uM
T1 construct: expressed in transfected cells
T1 sequence (P35346 whole entry): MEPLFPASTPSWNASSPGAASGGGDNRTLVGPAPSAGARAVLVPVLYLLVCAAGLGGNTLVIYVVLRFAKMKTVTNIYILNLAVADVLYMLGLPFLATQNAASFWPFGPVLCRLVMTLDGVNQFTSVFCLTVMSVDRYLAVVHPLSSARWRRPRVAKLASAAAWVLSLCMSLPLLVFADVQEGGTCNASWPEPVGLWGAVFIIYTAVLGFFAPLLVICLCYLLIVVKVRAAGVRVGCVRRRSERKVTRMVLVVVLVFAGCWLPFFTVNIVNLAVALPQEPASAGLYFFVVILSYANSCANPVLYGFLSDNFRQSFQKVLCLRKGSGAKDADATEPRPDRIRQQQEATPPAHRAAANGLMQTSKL
Protocol: Evaluation of Human SSTR5 Antagonist Activity Using Intracellular cAMP Concentration as Index
The intracellular cAMP concentration was measured using HTRF cAMP dynamic 2 kit (Cisbio Bioassays). Each test compound diluted with an assay buffer (HBSS (Invitrogen Corp.) containing 5 mM HEPES (pH 7.5) (Invitrogen Corp.), 0.1% fatty-acid free BSA (Sigma-Aldrich Corp.), and 500 u (“u” represents “micro”)M IBMX (Wako Pure Chemical Industries, Ltd.)) was added at a concentration of 2 uL/well to a 384-well white plate (Greiner Bio-One Co., Ltd.) to give the final concentration of 1 uM. A frozen stock of CHO (dhfr−) cells stably expressing the human SSTR5 gene (Accession No. NM_001053) was thawed in a thermostat bath of 37 C and suspended in a subculture medium (MEM alpha (Wako Pure Chemical Industries, Ltd.), 10% dialyzed serum (Gemini Bio-Products), and 50 ug/mL gentamicin (Invitrogen Corp.). After centrifugation of the cell suspension, the cells were resuspended in an assay buffer and added at a concentration of 2 uL/well (about 4,000 cells/well) to the plate. The compound and the cells were incubated for 15 minutes, and then, an assay buffer containing 0.1 nM (final concentration) somatostatin 28 (Toray Research Center) and 0.3 uM (final concentration) forskolin (Wako Pure Chemical Industries, Ltd.) was added thereto at a concentration of 2 uL/well, followed by incubation at room temperature for 30 minutes. cAMP-d2 and anti-cAMP-cryptate were each added thereto at a concentration of 3 uL/well. The plate was left standing at room temperature for 60 minutes. Then, the fluorescence resonance energy transfer (FRET) intensity was measured using Multi-label reader Envision (PerkinElmer). The FRET intensity of the wells supplemented with the test compound group was converted to a cAMP concentration using a calibration curve prepared from the FRET intensity of a well group containing an assay buffer supplemented with an arbitrary concentration of cAMP. The inhibitory activity of each compound was calculated according to the following expression: Inhibitory activity(%)=(C−B)/(A−B)×100 A: cAMP concentration calculated from the wells supplemented with 0.3 uM forskolin B: cAMP concentration calculated from the wells supplemented with 0.3 uM forskolin and 0.1 nM somatostatin 28 C: cAMP concentration calculated from the wells supplemented with 0.3 uM forskolin, 0.1 nM somatostatin 28, and 1 uM test compound

[1] = test system: Female KK-Ay/Ta mice, a type 2 diabetes model; assay: Antidiabetic effect in mice (glycated hemoglobin after 2 weeks of treatment); type: in vivo; conditions: 1 mg/kg orally once a day for 2 weeks, n=8
Text: Antidiabetic Effect in Mice
Female KK-Ay/Ta mice (Clea Japan Inc.), a type 2 diabetes model, were used in this study. At the age of 7-week old, blood sample were collected from tail vein at 8:00 am, and animals were divided into separate groups (n=8) based on glycated hemoglobin (GHb), plasma glucose, insulin, triglyceride levels and body weight. Vehicle (0.5% (w/v) methylcellulose) or compounds (suspended in vehicle) were orally administered once a day for 2 weeks. After 2 weeks of treatment, GHb was determined by auto-analyzer HLC-723G8 (TOSOH, Japan).

Row | SMILES | inhibition at 1 µM (human SSTR5) | average of delta GHb (%) [1]
1 | CC(C)Oc1cc(C2CC2)c(C2CC2)cc1CN1CCC(n2ccc(C(=O)O)cc2=O)CC1 [Example 4, 1-(1-(4,5-dicyclopropyl-2-isopropoxybenzyl)piperidin-4-yl)-2-oxo-1,2-dihydropyridine-4-carboxylic acid] | 120% | –
2 | CC(C)Oc1c(CN2CCC(n3ccc(C(=O)O)cc3=O)CC2)cc(C2CC2)c(-c2ccc(F)cc2F)c1Cl [Example 5, 1-(1-((2-chloro-6-cyclopropyl-2′,4′-difluoro-3-isopropoxybiphenyl-4-yl)methyl)piperidin-4-yl)-2-oxo-1,2-dihydropyridine-4-carboxylic acid] | 88% | –
3 | Cc1c(C(=O)O)ccn(C2CCN(Cc3cc(C4CC4)c(-c4ccc(F)cc4)c(F)c3OC(C)C)CC2)c1=O [Example 49, 1-(1-((6-Cyclopropyl-2,4′-difluoro-3-isopropoxybiphenyl-4-yl)methyl)piperidin-4-yl)-3-methyl-2-oxo-1,2-dihydropyridine-4-carboxylic acid] | – | −0.51%
4 | CCOc1c(CN2CCC(n3ccc(C(=O)O)c(CC)c3=O)CC2)cc(C2CC2)c(-c2ccc(F)cc2F)c1F [Example 45, 1-(1-((6-cyclopropyl-3-ethoxy-2,2′,4′-trifluorobiphenyl-4-yl)methyl)piperidin-4-yl)-3-ethyl-2-oxo-1,2-dihydropyridine-4-carboxylic acid] | 98% | –
5 | CC(C)Oc1cc(-c2ccc(F)cc2)c(C2CC2)cc1CN1CCC(n2ccc(C(=O)O)cc2=O)CC1 [Example 3, 1-(1-((2-cyclopropyl-4′-fluoro-5-isopropoxybiphenyl-4-yl)methyl)piperidin-4-yl)-2-oxo-1,2-dihydropyridine-4-carboxylic acid] | 116% | –
6 | CCc1c(C(=O)O)ccn(C2CCN(Cc3cc(C4CC4)c(-c4ccc(F)cc4F)c(F)c3OC(C)C)CC2)c1=O [Example 7, 1-(1-((6-cyclopropyl-2,2′,4′-trifluoro-3-isopropoxybiphenyl-4-yl)methyl)piperidin-4-yl)-3-ethyl-2-oxo-1,2-dihydropyridine-4-carboxylic acid] | 124% | –

More lines, main results first:

Row | inhibition at 1 µM (human SSTR5) | SMILES | average of delta GHb (%) [1]
7 | 111% | CCc1c(C(=O)O)ccn(C2CCN(Cc3cc(C4CC4)c(C4CC4)c(F)c3OC(C)C)CC2)c1=O [Example 47, 1-(1-(4,5-dicyclopropyl-3-fluoro-2-isopropoxybenzyl)piperidin-4-yl)-3-ethyl-2-oxo-1,2-dihydropyridine-4-carboxylic acid] | –
8 | 133% | CCc1c(C(=O)O)ccn(C2CCN(Cc3cc(C4CC4)c(-c4ccc(F)cc4)c(F)c3OC(C)C)CC2)c1=O [Example 43, 1-(1-((6-cyclopropyl-2,4′-difluoro-3-isopropoxybiphenyl-4-yl)methyl)piperidin-4-yl)-3-ethyl-2-oxo-1,2-dihydropyridine-4-carboxylic acid] | –
9 | 134% | CC(C)Oc1nc(-c2ccc(F)cc2)c(C2CC2)cc1CN1CCC(n2ccc(C(=O)O)cc2=O)CC1 [Example 2, 1-(1-((5-cyclopropyl-6-(4-fluorophenyl)-2-isopropoxypyridin-3-yl)methyl)piperidin-4-yl)-2-oxo-1,2-dihydropyridine-4-carboxylic acid] | –
10 | 94% | CCc1c(C(=O)O)ccn(C2CCN(Cc3cc(C4CC4)c(-c4ccc(F)cc4F)cc3OC(C)C)CC2)c1=O [Example 6, 1-(1-((2-cyclopropyl-2′,4′-difluoro-5-isopropoxybiphenyl-4-yl)methyl)piperidin-4-yl)-3-ethyl-2-oxo-1,2-dihydropyridine-4-carboxylic acid] | –
11 | 84% | CCOc1cc(C2CCC2)c(C2CC2)cc1CN1CCC(n2ccc(C(=O)O)cc2=O)CC1 [Example 1, 1-(1-(4-cyclobutyl-5-cyclopropyl-2-ethoxybenzyl)piperidin-4-yl)-2-oxo-1,2-dihydropyridine-4-carboxylic acid] | –
12 | 89% | CCc1c(C(=O)O)ccn(C2CCN(Cc3cc(C4CC4)c(-c4ccc(F)cc4)cc3OC(C)C)CC2)c1=O [Example 51, 1-(1-((2-cyclopropyl-4′-fluoro-5-isopropoxybiphenyl-4-yl)methyl)piperidin-4-yl)-3-ethyl-2-oxo-1,2-dihydropyridine-4-carboxylic acid] | –
